Our source for the IC50 values is patent publication US20260317356A1, “SMALL MOLECULE MODULATORS OF OGG1” (AZKARRA THERAPEUTICS, INC., priority 2023, published 2026).

hOGG1, sequence (O15527 12-323): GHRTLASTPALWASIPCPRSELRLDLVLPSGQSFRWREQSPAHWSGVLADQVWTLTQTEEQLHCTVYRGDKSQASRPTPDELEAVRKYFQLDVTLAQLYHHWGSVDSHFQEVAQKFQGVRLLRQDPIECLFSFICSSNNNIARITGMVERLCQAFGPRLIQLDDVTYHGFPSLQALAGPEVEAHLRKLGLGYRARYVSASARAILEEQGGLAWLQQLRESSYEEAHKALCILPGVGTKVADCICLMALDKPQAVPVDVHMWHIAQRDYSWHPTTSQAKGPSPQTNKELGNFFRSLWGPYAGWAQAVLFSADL

This assay has as its target hOGG1 (Homo sapiens, UniProt O15527). Put plainly: Biochemical fluorescence assay to measure enzymatic activity of hOGG1 (OGG1/APEX IC50). The arrangement: Protein His-hOGG1 (12-323) was prepared; His (N); host or cells: E. coli. The following applies: 1 nM OGG1+2 nM APEX+6 nM dsDNA (8-oxo-dG substrate); pH 7.5; RT 40 min; read-out: OGG1/APEX IC50. The method, boiled down:
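His-hOGG1 (12-323, E. coli) at 1 nM with 2 nM hAPE1/APEX1, preincubated 20 min RT with compound. Then 6 nM 8-oxo-dG dsDNA substrate added, 40 min at RT in Tris pH 7.5, 100 mM KCl. TAMRA fluorescence (Ex520/Em600) converted to % inhibition vs controls; IC50 from 3-parameter fit of 10-point curve.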
Regarding `COc1ccc(NC(=O)[C@H]2CC[C@@H](N3Cc4c(C)cc(NCCN(C)C)cc4C3=O)CC2)cc1F` [Example 257, (1s,4s)-4-(6-(2-(Dimethylamino)ethylamino)-4-methyl-1-oxoisoindolin-2-yl)-N-(3-fluoro-4-methoxyphenyl)cyclohexanecarboxamide], the IC50 was under 100 nM. `COc1cc(NC(=O)[C@H]2CC[C@@H](N3Cc4c(C)cccc4C3=O)CC2)ccc1C(F)(F)F` [Example 258, (1s,4s)-N-(3-Methoxy-4-(trifluoromethyl)phenyl)-4-(4-methyl-1-oxoisoindolin-2-yl)cyclohexanecarboxamide]: the IC50 is 100 to 1000 nM.

Turning to `COc1cc(NC(=O)[C@H]2CC[C@@H](N3Cc4c(C)cc(OCCN5CCC5)cc4C3=O)CC2)ccc1C` [Example 261, (1s,4s)-4-(6-(2-(Azetidin-1-yl)ethoxy)-4-methyl-1-oxoisoindolin-2-yl)-N-(3-methoxy-4-methylphenyl)cyclohexanecarboxamide], the IC50 is under 100 nM. The figure for `Cc1cccc2c1CN([C@H]1CC[C@@H](C(=O)Nc3ccc(Cl)c(C#N)c3)CC1)C2=O` [Example 263, (1s,4s)-N-(4-Chloro-3-cyanophenyl)-4-(4-methyl-1-oxoisoindolin-2-yl)cyclohexanecarboxamide] is 100 to 1000 nM. On to `Cc1cc(NCCN(C)C)cc2c1CN([C@H]1CC[C@@H](C(=O)Nc3ccc(Cl)c(F)c3)CC1)C2=O` [Example 264, (1s,4s)-N-(4-Chloro-3-fluorophenyl)-4-(6-(2-(dimethylamino)ethylamino)-4-methyl-1-oxoisoindolin-2-yl)cyclohexanecarboxamide], for which the IC50 is under 100 nM. The same measure for `COc1cc(NC(=O)[C@H]2CC[C@@H](N3Cc4c(C)cccc4C3=O)CC2)ccc1C#N` [Example 265, (1s,4s)-N-(4-Cyano-3-methoxyphenyl)-4-(4-methyl-1-oxoisoindolin-2-yl)cyclohexanecarboxamide]: over 10000 nM; for `CNCCOc1cc(C)c2c(c1)C(=O)N([C@H]1CC[C@@H](C(=O)Nc3ccc(C)c(OC)c3)CC1)C2` [Example 266, (1s,4s)-N-(3-Methoxy-4-methylphenyl)-4-(4-methyl-6-(2-(methylamino)ethoxy)-1-oxoisoindolin-2-yl)cyclohexanecarboxamide]: under 100 nM. Take `Cc1cccc2c1CN([C@H]1CC[C@@H](C(=O)Nc3ccc4nc[nH]c4c3)CC1)C2=O` [Example 272, (1s,4s)-N-(1H-benzo[d]imidazol-6-yl)-4-(4-methyl-1-oxoisoindolin-2-yl)cyclohexanecarboxamide]: the IC50 is 1000 to 10000 nM. Turning to `Cc1cccc2c1CN([C@H]1CC[C@@H](C(=O)Nc3cc4ccccc4[nH]3)CC1)C2=O` [Example 273, (1s,4s)-N-(1H-indol-2-yl)-4-(4-methyl-1-oxoisoindolin-2-yl)cyclohexanecarboxamide], the IC50 lay in the range of 100 to 1000 nM. In the case of `Cc1cccc2c1CN([C@H]1CC[C@@H](C(=O)Nc3nc4ccccc4[nH]3)CC1)C2=O` [Example 274, (1s,4s)-N-(1H-benzo[d]imidazol-2-yl)-4-(4-methyl-1-oxoisoindolin-2-yl)cyclohexanecarboxamide], the IC50 is 100 to 1000 nM. The figure for `Cc1cccc2c1CN([C@H]1CC[C@@H](C(=O)Nc3ccc4oncc4c3)CC1)C2=O` [Example 275, (1s,4s)-N-(benzo[d]isoxazol-5-yl)-4-(4-methyl-1-oxoisoindolin-2-yl)cyclohexanecarboxamide] is 100 to 1000 nM.

For `Cc1cccc2c1CN([C@H]1CC[C@@H](C(=O)Nc3ccc4cc[nH]c4c3)CC1)C2=O` [Example 276, (1s,4s)-N-(1H-indol-6-yl)-4-(4-methyl-1-oxoisoindolin-2-yl)cyclohexanecarboxamide], the IC50 lay in the range of 1000 to 10000 nM. The figure for `COc1cc(NC(=O)[C@]2(C)CC[C@@H](N3Cc4c(C)cccc4C3=O)CC2)ccc1C` [Example 278, (1r,4r)-N-(3-methoxy-4-methylphenyl)-1-methyl-4-(4-methyl-1-oxoisoindolin-2-yl)cyclohexane-1-carboxamide] is 1000 to 10000 nM.
